The results in this text go back to patent publication US6465429B1, “Antimicrobial cationic peptides” (priority 1995, dated 2002).

In one data set the test system is Candida albicans. Nature of the data set: MIC, broth dilution in LB-S. Type of data set: cell-based. Details: unit not given beside the values. The settings on record: Candida albicans (CAN105); Table 1a. As to the method: The biological activity of the peptides can be determined by standard methods known to those of skill in the art, such as “minimal inhibitory concentration (MIC)” assay described in the present examples, whereby the lowest concentration at which no change in OD is observed for a given period of time is recorded as MIC. Alternatively, “fractional inhibitory concentration (FIC)” is also useful for determination of synergy between the peptides of the invention, or the peptides in combination with known antibiotics. FICs are performed by checkerboard titrations of peptides in one dimension of a microtiter plate, and of antibiotics in the other dimension, for example. The FIC is calculated by looking at the impact of one antibiotic on the MIC of the other and vice versa. […] Preferably, an FIC of less than 0.5 is obtained for synergism. As used herein, FIC can be determined as follows: [formula]
Briefly, cells were grown overnight at 37° C. in LB-S (Luria broth without any salt supplement) and diluted one in 10,000 in the same medium to give concentrations of about 10^4 to 10^5 CFU/ml. The broth dilutions were set up in a 96 well microtiter plate by putting 200 μl of LB-S containing the initial concentration of antibiotic or compound in column 1 and 100 μl of the same medium in columns 2-12. […] The next day the plates were scored for growth in the wells, and the MIC determined.

A further data set deals with RAW cells. The experiment in a line: RAW cell viability by Trypan blue exclusion. Type of data set: cell-based.
For the next data set, the system named is E. coli ML 35. Nature of the data set: Inner membrane permeabilization (β-galactosidase, ONPG). Type of data set: cell-based. The method, then:
Inner membrane permeability was determined by measurement in E. coli ML 35 of β-galactosidase activity using ONPG as a substrate. Normally ONPG cannot pass across the cytoplasmic membrane to permit hydrolysis by the cytoplasmic enzyme β-galactosidase. However, cationic peptides, by permeabilizing the inner membrane, unmasks this enzyme leading to color development as ONP is released. […] Addition of citrate increased the lag time before the peptides were able to permeabilize the membranes. When the experiments were executed in cation adjusted media (CAMHB), the lag time was increased up to 30 minutes.

In another data set the test system is P. aeruginosa. The experiment in a line: microbe, parasite or virus in culture. To be noted: agent alone. The method, then: FICs are performed by checkerboard titrations of peptides in one dimension of a microtiter plate, and of antibiotics in the other dimension, for example. The FIC is calculated by looking at the impact of one antibiotic on the MIC of the other and vice versa. […] Preferably, an FIC of less than 0.5 is obtained for synergism. As used herein, FIC can be determined as follows: [formula]
Synergism is identified as an FIC of about ≦0.5.

Data set [1] deals with LPS-induced TNF in RAW 264.7 macrophage cells. The experiment in a line: Inhibition of LPS-mediated TNF induction in macrophages (L929 cytotoxic assay). The class given is cell-based. As to the method:
RAW 264.7 macrophage cells were grown by seeding 10^6 cells into a 162 cm^2 cell culture flask and incubated at 37° C., 5%CO2 for 1 week. RAW cell media [(Dulbecco's Modified Eagle Medium with Hepes buffer 450 ml; 2.4 mML-glutamine 3 ml (400 mM); Pen/Strep 3 ml (10^4U/ml of Pen, 1 mg/ml strep); and 10% heat inactivated fetal bovine serum (FBS) 50 ml)] was then completely removed from flasks. 10 mls of cell dissociation solution (Sigma) was added to each flask and inc; bated at 37° C. for 10 minutes. Cells were removed from flasks, diluted in RAW cell media and centrifuged for 6 minutes. The cell pellet was resuspended in 5 ml of media/flask used, 100 μl cell suspension was removed and added to 400 ∥l of trypan blue and cells were counted using a hemocytometer. The cell suspension was diluted to 1×10^6 cells/ml and 1 ml of suspension was added per well of a 24 well plate. The 24 well plates were incubated at 37° C., 5% CO2 overnight for use in the assay.
After an overnight incubation, the media was aspirated from all the wells. 100 μl of Lipopolysaccharide (LPS) was added at 100 ng/100 μl. CEME, CEMA or MBI 29 was added at the desired concentration/100 μl to specified wells. […] The plates were then incubated for six hours at 37° C., 5% CO2. The supernatant was then removed from the wells and stored overnight at 4° C. For those wells in which whole bacteria were added directly to the wells, the supernatant was centrifuged in 0.2 μm filter eppendorf tubes for 5 minutes.
The supernatants were then used in cell cytotoxic L929 assay. The samples were transferred to 96 well plates. […]
TNF-sensitive L929 mouse fibroblast cells were grown by seeding 10^6 cells into a 162 cm^2 cell culture flask and left to grow for 1 week. […] The pellet was resuspended in 5 mls of fresh L929 media/flask and counted (same as RAW cells). […]
The plates were read at 570 nm in a ELISA plate reader with 690 nm reference filter. […]
In order to determine how rapidly the cationic peptides reduced LPS-induced TNF production, E. coli 0111:B4 was added at time 0 to RAW macrophages. […] Levels of TNF were measured after 6 hours. […]

A further data set relates to Red Blood Cells. The experiment in a line: Red Blood Cell lysis. Type of data set: cell-based.
A short description of data set [2]: Synergy of MBI 26 with lysozyme and further antibiotics (reduction in MIC). To be noted: in combination with MBI 26 (1.25 μg/mL). Type of data set: cell-based.
Data set [3] can be described thus: α helical content by CD spectra. The class given is physicochemical. The method, then: The α helical content of the peptides were measured in buffer, liposomes and 20% Hexafluoroisopropanol (HFPIP). The liposomes constituted of POPC alone or POPC PC and 30% POPG (Table 7).
A short description of data set [4]: Dansyl polymyxin displacement assay. The class given is binding. The settings on record: Dansyl polymyxin displacement from LPS. The source says:
In addition, the peptides of SEQ ID NO: 5-8 also bound effectively to LPS with high affinity based on Dansyl polymyxin displacement assays (Table 5).

Values joined by “and” are separate entries in the source; they are usually repeats but may differ in a detail not shown here. Identical values can stand only once. “Also recorded” adds a separate entry of the source.

KWKLFKKIGIGAVLKVLTTGLPALIS [CEME]: the MIC entry in the data set with Candida albicans is recorded as “≧64”.
Turning to `CC[C@H](C)[C@H](NC(=O)[C@H](CC(C)C)NC(=O)[C@H](C)NC(=O)[C@@H]1CCCN1C(=O)[C@H](CC(C)C)NC(=O)CNC(=O)[C@@H](NC(=O)[C@@H](NC(=O)[C@H](CC(C)C)NC(=O)[C@@H](NC(=O)[C@H](CCCCN)NC(=O)[C@H](CCCCN)NC(=O)[C@@H](NC(=O)[C@H](C)NC(=O)[C@@H](NC(=O)[C@@H](NC(=O)[C@H](CC(C)C)NC(=O)[C@H](CCCCN)NC(=O)[C@H](CCCCN)NC(=O)[C@@H](NC(=O)[C@H](Cc1ccccc1)NC(=O)[C@H](CO)NC(=O)[C@H](CCCCN)NC(=O)[C@H](Cc1c[nH]c2ccccc12)NC(=O)[C@@H](N)CCCCN)[C@@H](C)CC)[C@@H](C)O)[C@@H](C)O)C(C)C)C(C)C)[C@@H](C)O)[C@@H](C)O)C(=O)N[C@@H](CO)C(=O)O` [MBI 29], the “amount causing no apparent decrease in RAW cell viability” value in the data set with RAW cells is reported as “Up to 50 μg”. Further, the “effect of 5 mM Mg++ on inner membrane permeabilization” value with E. coli ML 35 (4 ug peptide, +5 mM Mg) is given as “the least affected by any of the conditions”. In addition, the MIC is 128 µg/mL and 123 µg/mL with P. aeruginosa (P. aeruginosa isolate 27, strain 14644); 128 µg/mL in the data set with P. aeruginosa (P. aeruginosa isolate 28, strain 15036); 32 μg · mL^1 with P. aeruginosa (Table 33, P. aeruginosa isolate 23, strain ATCC 27853); 16 μg · mL^1 in the data set on P. aeruginosa (Table 33, P. aeruginosa isolate 24, strain 34); 32 μg · mL^1 in the data set on P. aeruginosa (Table 33, P. aeruginosa isolate 25, strain 923-1); 32 μg · mL^1 in the data set on P. aeruginosa (Table 33, P. aeruginosa isolate 26, strain 3101). For the same compound, the MIC in the data set on P. aeruginosa (Table 33, P. aeruginosa isolate 27, strain 14644) is given as 32 μg · mL^1; in the data set on P. aeruginosa (Table 33, P. aeruginosa isolate 28, strain 15036) it was 32 μg · mL^1; with P. aeruginosa (Table 33, P. aeruginosa isolate 29, strain 15545), 32 μg · mL^1; in the data set with P. aeruginosa (Table 33, P. aeruginosa isolate 30, strain B3999-1), 32 μg · mL^1; with P. aeruginosa (Table 33, P. aeruginosa isolate 31, strain U7688-1), 32 μg · mL^1; in the data set with P. aeruginosa (Table 33, P. aeruginosa isolate 32, strain W2897-1), 32 μg · mL^1. Also, the MIC in the data set on P. aeruginosa (Table 33, P. aeruginosa isolate 33, strain W5483-2) worked out at 32 μg · mL^1. In [1] (20 μg MBI 29 for 60 minutes, washed 3 times, then 10 ng or 100 ng LPS), the “TNF induction in washed RAW cells pre-incubated with peptide” value was 14,000-20,000 Units of TNF per ml. Further, the “inhibition of TNF induction by LPS” value in data set [1] (E. coli 0111:B4 LPS, peptide added at 0, 30 and 60 minutes, TNF after 6 hours) was “inhibited TNF induction by LPS in a similar manner to polymyxin B”. In addition, the “reduction of LPS-induced TNF when added after LPS” value in data set [1] (added 60 minutes after the addition of LPS) is “effective at reducing the ability of LPS to induce TNF; also recorded: distinct and reproducible advantage over polymyxin B”. Besides, the “RBC Lysis” value in the data set with Red Blood Cells was more than 55 µg/mL.
For `CC1(C)S[C@@H]2[C@H](NC(=O)C(C(=O)O)c3ccccc3)C(=O)N2[C@H]1C(=O)O` (stereo partly shown) [carbenicillin], the “reduction in MIC” value in data set [2] stood at 2 ×.
For `CC[C@H](C)[C@H](NC(=O)[C@H](CC(C)C)NC(=O)[C@H](C)NC(=O)[C@@H]1CCCN1C(=O)[C@H](CC(C)C)NC(=O)CNC(=O)[C@@H](NC(=O)[C@@H](NC(=O)[C@H](CC(C)C)NC(=O)[C@@H](NC(=O)[C@H](CCCCN)NC(=O)[C@H](CCCCN)NC(=O)[C@@H](NC(=O)[C@H](C)NC(=O)[C@@H](NC(=O)[C@@H](NC(=O)[C@H](CC(C)C)NC(=O)[C@H](CCCCN)NC(=O)[C@H](CCCCN)NC(=O)[C@@H](NC(=O)[C@H](Cc1ccccc1)NC(=O)[C@H](CCC(=O)O)NC(=O)[C@H](CCCCN)NC(=O)[C@H](Cc1c[nH]c2ccccc12)NC(=O)[C@@H](N)CCCCN)[C@@H](C)CC)[C@@H](C)O)[C@@H](C)O)C(C)C)C(C)C)[C@@H](C)O)[C@@H](C)O)C(=O)N[C@@H](CO)C(=O)O` [compound 492], in the data set with E. coli ML 35 (inner membrane permeabilization, E. coli ML 35), the “Lag Time” value came out at 68 s. In the data set with E. coli ML 35 (inner membrane permeabilization, E. coli ML 35, ONPG), the “Rate of Hydrolysis” value is given as 0.23 ΔAU min^−1. The “% α helicity” value in data set [3] (20% HFIP) was found to be 43%; in [3] (Buffer), 0%; in data set [3] (POPC Liposomes) it was 42%; in data set [3] (POPC/POPG Liposomes), 19%. This compound gave an Imax in data set [4] of 48%. In addition, in the data set on Red Blood Cells, the “RBC Lysis” value is more than 55 µg/mL.
Take Lysozyme: the “reduction in MIC” value in data set [2] is recorded as more than 64 ×.
As for `CO[C@@H]1[C@@H](OC(N)=O)[C@@H](O)[C@H](Oc2ccc3c(O)c(NC(=O)c4ccc(O)c(CC=C(C)C)c4)c(=O)oc3c2C)OC1(C)C` [Novobiocin], the “reduction in MIC” value in [2] was more than 4 ×.
